Test results published in ChEMBL document CHEMBL5375967 (J Med Chem, 2023).
≈ marks a conversion by molar mass, not a printed value. Calls of active or inactive are those of the source. The calls are words filed in the database; no cut-off is given here.

Assays:
[1] = Cmax in Wistar rat at 30 mg/kg, po measured upto 24 hrs by LC-MS/MS analysis; assay type: ADME, organism-based; set-up: time < 24 hrs, dose 30 mg/kg, route po; conditions: in vivo
[2] = Inhibition of arachidonic acid-stimulated LTB4 release in skin inflammation 129S2/SvPasCrl mouse model at 0.3 mg/kg, po pretreated with compound for 4 hrs followed by arachidonic acid stimulation and measured after 1 hr; assay type: functional
[3] = biological target: Voltage-gated inwardly rectifying potassium channel KCNH2 (Homo sapiens, UniProt Q12809)
Chain of Voltage-gated inwardly rectifying potassium channel KCNH2 (Q12809 whole entry): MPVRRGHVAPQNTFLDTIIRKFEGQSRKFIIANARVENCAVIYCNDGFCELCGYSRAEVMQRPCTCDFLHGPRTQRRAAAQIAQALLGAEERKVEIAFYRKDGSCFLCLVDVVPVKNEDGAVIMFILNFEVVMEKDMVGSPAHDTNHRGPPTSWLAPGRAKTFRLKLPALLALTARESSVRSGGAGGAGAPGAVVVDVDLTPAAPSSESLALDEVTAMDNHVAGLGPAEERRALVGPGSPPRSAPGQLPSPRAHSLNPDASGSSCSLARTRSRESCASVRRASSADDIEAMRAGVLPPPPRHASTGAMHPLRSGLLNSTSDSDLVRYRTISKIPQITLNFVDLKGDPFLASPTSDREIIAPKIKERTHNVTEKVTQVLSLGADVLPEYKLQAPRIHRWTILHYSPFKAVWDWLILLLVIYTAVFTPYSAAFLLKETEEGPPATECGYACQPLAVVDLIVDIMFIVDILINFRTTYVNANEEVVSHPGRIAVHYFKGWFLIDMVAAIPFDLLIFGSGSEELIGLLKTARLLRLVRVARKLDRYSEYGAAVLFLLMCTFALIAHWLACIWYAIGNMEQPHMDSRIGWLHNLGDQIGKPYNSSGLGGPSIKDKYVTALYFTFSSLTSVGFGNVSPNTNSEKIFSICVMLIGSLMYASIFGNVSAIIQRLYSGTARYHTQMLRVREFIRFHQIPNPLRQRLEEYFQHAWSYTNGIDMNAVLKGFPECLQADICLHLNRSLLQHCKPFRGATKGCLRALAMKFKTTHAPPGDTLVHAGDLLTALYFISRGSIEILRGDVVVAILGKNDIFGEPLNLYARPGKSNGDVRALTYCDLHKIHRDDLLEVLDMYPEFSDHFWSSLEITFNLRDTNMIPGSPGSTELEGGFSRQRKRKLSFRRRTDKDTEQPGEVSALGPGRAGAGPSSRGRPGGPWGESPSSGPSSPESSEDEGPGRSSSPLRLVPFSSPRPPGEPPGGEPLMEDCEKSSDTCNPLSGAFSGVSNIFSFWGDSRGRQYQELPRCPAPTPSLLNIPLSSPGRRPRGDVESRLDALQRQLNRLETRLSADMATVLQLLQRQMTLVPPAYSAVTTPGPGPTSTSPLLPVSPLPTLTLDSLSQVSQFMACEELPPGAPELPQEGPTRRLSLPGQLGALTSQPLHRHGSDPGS

in vitro = conditions: rat, liver microsomes
[4] = Oral bioavailability in Wistar rat at 30 mg/kg measured upto 24 hrs by LC-MS/MS analysis; assay type: ADME, organism-based; conditions: in vivo
Mus musculus [5] = assay: Antiarthritic activity in KRN passive serum-induced arthritis C57BL/6 mouse model assessed as reduction in cellularity at 0.1 to 10 mg/kg, po bid measured on day 7 at 2 hrs after first dose and 14 hrs after second dose; assay type: functional, organism-based; conditions: dose 0.1-10 mg/kg, time 7.0 day
[6] = Metabolic stability in human hepatocyte assessed as intrinsic clearance; assay type: ADME, cell-based; conditions: hepatocytes
[7] = Inhibition of arachidonic acid-stimulated LTB4 release in skin inflammation 129S2/SvPasCrl mouse model at 0.03 mg/kg, po pretreated with compound for 4 hrs followed by arachidonic acid stimulation and measured after 1 hr; assay type: functional; conditions: time 5 hrs
[8] = Half life in C57BL/6 mouse at 1 mg/kg, iv measured upto 24 hrs by LC-MS/MS analysis; assay type: ADME, organism-based; conditions: in vivo
[9] = Metabolic stability in dog hepatocyte assessed as intrinsic clearance; assay type: ADME, cell-based, Canis lupus familiaris; conditions: hepatocytes
[10] = Cmax in C57BL/6 mouse at 3 mg/kg, po measured upto 24 hrs by LC-MS/MS analysis; assay type: ADME, organism-based; set-up: time < 24 hrs, dose 3 mg/kg, route po; conditions: in vivo
[11] = Drug concentration in blood of arachidonic acid-induced skin inflammation 129S2/SvPasCrl mouse model at 0.3 mg/kg, po measured after 4 hrs; assay type: ADME, organism-based; conditions: read-out: Ct
[12] = Drug concentration in blood of arachidonic acid-induced skin inflammation 129S2/SvPasCrl mouse model at 0.03 mg/kg, po measured after 4 hrs; assay type: ADME, organism-based; conditions: read-out: Ct
[13] = Inhibition of calcium ionophore A23187-stimulated LTB4 release in C57BL/6 mouse model at 10 mg/kg, po bid measured after 24 hrs; assay type: functional
Mus musculus [14] = assay: Antiarthritic activity in KRN passive serum-induced arthritis C57BL/6 mouse model assessed as reduction in neutrophil numbers at 0.1 to 10 mg/kg, po bid measured on day 7 at 2 hrs after first dose and 14 hrs after second dose; assay type: functional, organism-based; conditions: dose 0.1-10 mg/kg, time 7.0 day
[15] = Volume of distribution at steady state in Wistar rat at 1 mg/kg, iv measured upto 24 hrs by LC-MS/MS analysis; assay type: ADME, organism-based; conditions: in vivo, read-out: Vdss
[16] = Inhibition of arachidonic acid-stimulated LTB4 release in skin inflammation 129S2/SvPasCrl mouse model at 3 mg/kg, po pretreated with compound for 4 hrs followed by arachidonic acid stimulation and measured after 1 hr; assay type: functional; conditions: time 5 hrs
[17] = Solubility of compound in FaSSIF at pH 6.8; assay type: physicochemical
[18] = Oral bioavailability in C57BL/6 mouse at 3 mg/kg measured upto 24 hrs by LC-MS/MS analysis; assay type: ADME, organism-based; conditions: in vivo
in vivo [19] = conditions: Sprague-Dawley, rat, iv, 1 mg/kg
[20] = Volume of distribution at steady state in C57BL/6 mouse at 1 mg/kg, iv measured upto 24 hrs by LC-MS/MS analysis; assay type: ADME, organism-based; conditions: in vivo, read-out: Vdss
[21] = Clearance in dog at 1 mg/kg, iv measured upto 24 hrs by LC-MS/MS analysis; assay type: ADME, organism-based, Canis lupus familiaris; conditions: in vivo
Mus musculus [22] = assay: Antiarthritic activity in KRN passive serum-induced arthritis C57BL/6 mouse model assessed as reduction in tissue destruction at 0.1 to 10 mg/kg, po bid measured on day 7 at 2 hrs after first dose and 14 hrs after second dose; assay type: functional, organism-based; conditions: dose 0.1-10 mg/kg, time 7.0 day
in vivo [23] = conditions: Sprague-Dawley, rat, iv, 1 mg/kg; remark: listed apart in the source
physchem = conditions: buffer, pH 6.8
[24] = MRT in C57BL/6 mouse at 1 mg/kg, iv measured upto 24 hrs by LC-MS/MS analysis; assay type: ADME, organism-based; conditions: in vivo
Mus musculus [25] = assay: Antiarthritic activity in KRN passive serum-induced arthritis C57BL/6 mouse model assessed as reduction in proteoglycan loss at 0.1 to 10 mg/kg, po bid measured on day 7 at 2 hrs after first dose and 14 hrs after second dose; assay type: functional, organism-based; conditions: dose 0.1-10 mg/kg, time 7.0 day
Mus musculus [26] = assay: Antiarthritic activity in KRN passive serum-induced arthritis C57BL/6 mouse model assessed as reduction in paw swelling at 0.1 to 10 mg/kg, po bid measured on day 7 at 2 hrs after first dose and 14 hrs after second dose; assay type: functional, organism-based; conditions: dose 0.1-10 mg/kg, time 7.0 day
in vivo [27] = conditions: Sprague-Dawley, rat, iv, 1 mg/kg; remark: listed apart in the source
in vivo [28] = conditions: C57BL/6, mouse, in vivo, po, 10 mg/kg
[29] = biological target: T1, Leukotriene A-4 hydrolase (Homo sapiens, UniProt P09960); assay: Inhibition of LTA4H in human whole blood assessed as ionophore-stimulated LTB4 release preincubated for 15 mins by competitive immunoassay; assay type: tissue-based
T1 sequence (P09960 whole entry): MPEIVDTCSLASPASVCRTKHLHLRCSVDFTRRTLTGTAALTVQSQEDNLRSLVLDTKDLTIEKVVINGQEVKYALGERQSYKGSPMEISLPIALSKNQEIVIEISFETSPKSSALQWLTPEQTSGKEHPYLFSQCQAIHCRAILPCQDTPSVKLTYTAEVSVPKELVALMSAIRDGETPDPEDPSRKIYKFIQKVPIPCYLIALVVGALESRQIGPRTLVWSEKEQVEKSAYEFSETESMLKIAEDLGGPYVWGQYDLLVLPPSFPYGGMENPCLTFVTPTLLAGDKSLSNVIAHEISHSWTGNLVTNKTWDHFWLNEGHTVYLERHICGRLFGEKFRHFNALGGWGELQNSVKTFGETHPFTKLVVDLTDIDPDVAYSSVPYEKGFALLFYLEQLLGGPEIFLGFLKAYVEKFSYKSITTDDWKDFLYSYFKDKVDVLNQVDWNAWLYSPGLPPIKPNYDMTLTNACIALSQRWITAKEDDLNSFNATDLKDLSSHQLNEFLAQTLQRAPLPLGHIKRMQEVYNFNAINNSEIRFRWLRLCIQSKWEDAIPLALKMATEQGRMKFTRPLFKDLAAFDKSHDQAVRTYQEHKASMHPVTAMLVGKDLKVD

[30] = Half life in dog at 1 mg/kg, iv measured upto 24 hrs by LC-MS/MS analysis; assay type: ADME, organism-based, Canis lupus familiaris; conditions: in vivo
Mus musculus [31] = assay: Antiarthritic activity in KRN passive serum-induced arthritis C57BL/6 mouse model assessed as reduction in joint damage at 0.1 to 10 mg/kg, po bid measured on day 7 at 2 hrs after first dose and 14 hrs after second dose; assay type: functional, organism-based; conditions: dose 0.1-10 mg/kg, time 7.0 day
[32] = Clearance in C57BL/6 mouse at 1 mg/kg, iv measured upto 24 hrs by LC-MS/MS analysis; assay type: ADME, organism-based; conditions: in vivo
[33] = Cmax in dog at 3 mg/kg, po measured upto 24 hrs by LC-MS/MS analysis; assay type: ADME, organism-based, Canis lupus familiaris; set-up: time < 24 hrs, dose 3 mg/kg, route po; conditions: in vivo

Q: With `N[C@H](CO)Cn1ccc(-c2ccc(Oc3ncc(-c4cc[nH]n4)cc3F)cc2)n1` as the compound, how does the Cmax [1] read?
A: 5490 nM

Q: And the inhibition in vivo at 0.3 mg/kg [2]?
A: 93%

Q: And the IC50 [3]?
A: > 30000 nM

Q: What about the microsomal CLint (in vitro) of the same compound?
A: 179 µL/min/mg

Q: What about the bioavailability [4] of the same compound?
A: 46%

Q: And the Activity (Mus musculus [5])?
A: Active

Q: What about the CLH [6] of the same compound?
A: < 4 µL/min/mg

Q: And the inhibition in vivo at 0.03 mg/kg [7]?
A: 74%

Q: What about the half-life [8] of the same compound?
A: 3.4 h

Q: And the CLH [9]?
A: 6 µL/min/mg

Q: And the Cmax [10]?
A: 443 nM

Q: What about the concentration at 4 h [11] of the same compound?
A: 108 nM

Q: And the concentration at 4 h [12]?
A: 79 nM

Q: And the inhibition in vivo at 10 mg/kg [13]?
A: 93%

Q: What about the Activity (Mus musculus [14]) of the same compound?
A: Active

Q: What about the Vd [15] of the same compound?
A: 6.9 L/kg

Q: What about the inhibition in vivo at 3 mg/kg [16] of the same compound?
A: 97%

Q: What about the solubility [17] of the same compound?
A: > 2000 µg/mL

Q: What about the bioavailability [18] of the same compound?
A: 32%

Q: And the bioavailability (in vivo [19])?
A: 57%

Q: What about the Vd [20] of the same compound?
A: 1.6 L/kg

Q: What about the clearance [21] of the same compound?
A: 2.2 mL/min/kg

Q: And the Activity (Mus musculus [22])?
A: Active

Q: And the clearance (in vivo [23])?
A: 20 mL/min/kg

Q: And the solubility (physchem)?
A: 180 µM (≈ 71 µg/mL)

Q: What about the MRT [24] of the same compound?
A: 3.3 h

Q: And the Activity (Mus musculus [25])?
A: Active

Q: And the Activity (Mus musculus [26])?
A: Active

Q: What about the Cmax (in vivo [27]) of the same compound?
A: 298 nM

Q: And the concentration at 24 h (in vivo [28])?
A: 218 nM

Q: And the IC50 [29]?
A: 47 nM

Q: And the half-life [30]?
A: 40 h

Q: What about the Activity (Mus musculus [31]) of the same compound?
A: Active

Q: What about the clearance [32] of the same compound?
A: 7.5 mL/min/kg

Q: What about the Cmax [33] of the same compound?
A: 1180 nM
